Results: patent US8481515B2, “Derivatives of cholest-4-en-3-one oxime, pharmaceutical compositions containing them and preparation method” (Trophos, priority 2005, dated 2013)

Columns and labels:
[1] = system: striatal neurons; experiment: protection of striatal neurons against death induced by overexpression of a mutated form of huntingtin; type: cell-based; conditions: 7 days, living cells expressing GFP
Protocol: Primary cultures of striatal neurons are prepared and they are described in the literature (Primary striatal neuronal culture, Mao L. et al., Methods Mol. Med., 2003, 79:379-86). […] A second expression vector containing the DNA coding for the green fluorescent protein (GFP) is also electroporated and is used as a reporter gene. The DNA of the plasmid coding for the huntingtin was prepared by purifying with cesium chloride. The plasmid containing the GFP sequence was prepared on Qiagen columns. The integrity of the DNA sequences is checked by sequencing, transfection and Western blotting. The cells which survive electroporation are sown at a density of 4,000 cellules per well of 96-well plates. The culture is accomplished in neurobasal medium (GIBCO) supplemented with pyruvate and B-27 (Beckton Dickinson). The cells are maintained in culture for 7 days without changing the medium.
[…] Positive controls are made by adding BDNF at a final level of 5 ng/ml. The negative controls only receive 0.5% DMSO.
Cell death is evaluated after 7 days by counting the number of living cells expressing GFP.
The activity of the compounds to be tested was evaluated by their capacity of preventing death of striatal neurons cultivated in the neurobasal medium as compared with the survival of striatal neurons in a medium supplemented with BDNF (Brain-Derived Neurotrophic Factor).

[2] = system: rat motoneurons; experiment: in vitro trophic deprivation model of rat motoneurons (survival, calcein fluorescence); type: cell-based; conditions: 3 days of culture, no trophic factors
Excerpt: It may be helpful to refer to Patent Application WO 0142784 of the applicant on the culture of spinal cord motoneurons.
The spinal cord of E14 rat embryos is dissected and the ventral portion is dissociated by trituration after trypsinization. The motoneurons are separated from the other spinal cells by a known method (Camu et al, 1993, Purification of spinal motoneurons from chicken and rat embryos by immunopanning. In <<Immunoselection Strategies for Neural cell culture>>), Neuroprotocols: A companion to Methods in Neurosciences 2, 191-199; Henderson et al., 1993, Neutrophins promote motor neuron survival and are present in embryonic limb bud. Nature 363 (6426):266-70). The cells are centrifuged on a density gradient. The motoneurons are enriched with the fraction of large (the less dense) cells. The cells of this fraction are incubated with an anti-p75 antibody, a surface antigen present on motoneurons. Secondary antibodies coupled with magnetic beads are added and the cell mixture is passed through a column in a magnet (Arce et al, 1999 Cardiotrophin-1 requires LIFRbeta to promote survival of mouse motoneurons purified by a novel technique. J. Neurosci Res 55(1): 119-26). Only motoneurons are retained: their purity is of the order of 90%.
The motoneurons are sown at low density in culture wells on a polyornithine-laminine substrate in a neurobasal medium (GIBCO) supplemented according to Raoul et al, 1999, Programmed cell death of embryonic motoneurons triggered through the Fas death receptor. J. Cell. Biol. 147(5):1049-62. Negative (absence of trophic factors) controls and positive controls (in the presence of 1 ng/ml BDNF (Brain-Derived Neurotrophic Factor), 1 ng/ml GDNF (Glial-Derived Neurotrophic Factor) and 10 ng/ml CNTF (Ciliary Neurotrophic Factor) as marketed by the US company PEPROTECH, Inc. and Sigma-Aldrich) are included in each series.
The compounds to be tested are added 60 minutes after sowing and the cultures are maintained at 37° C. under 5% CO2 for 3 days.
The motoneurons tend to die spontaneously in the absence of neurotrophic factors (Pettmann and Henderson, 1998, Neuronal cell death. Neuron 20(4):633-47). After 3 days, survival is evaluated by a fluorescence measurement after incubation of the cells in the presence of calcein which becomes fluorescent in living cells.
After 3 days of culture at 37° C. under 5% CO2 and in saturating humidity, up to 50% of the initially sown motoneurons survive in the medium supplemented with neurotrophic factors, whereas less than 15% of the motoneurons survive in a culture medium not added with neurotrophic factors.
The neuroprotective activity of the compounds to be tested was evaluated by their capacity of preventing the death of motoneurons when they are added to the Neurobasal medium (GIBCO) as compared with survival of the motoneurons in a medium added with neurotrophic factors.
The compounds of formula I according to the invention have shown neuroprotective activity at a concentration capable of providing a better survival rate of the motoneurons in the Neurobasal medium. This survival rate is expressed by the number of living cells after treatment with the compound to be tested as compared with survival induced by neurotrophic factors. This ratio therefore represents the survival percentage due to the tested compound as compared with the survival induced by neurotrophic factors. If the ratio is greater than 0, the effect of the compound is positive for the survival of motoneurons.

[3] = system: cortical neurons; experiment: protection of cortical neurons against camptothecin-induced death (calcein-AM cell count); type: cell-based, Sprague-Dawley rat; conditions: 10 μM camptothecin, 16 hours, mean ± standard deviation, n = 8 wells
Protocol: Cortical neurons were prepared from Sprague-Dawley rat embryos in the E18 pregnancy stage and cultivated in a 96-well plate at a density of 333 cells/mm^2 in Neurobasal medium (Invitrogen) supplemented with 2% B27 (Invitrogen) and 2% sodium pyruvate. With these culture conditions, it is possible to obtain very good cortical neuron purity in the cultures. After 6 days in culture, the death of cortical neurons was induced by adding 10 μM camptothecin dissolved in dimethyl sulfoxide (DMSO). At the same moment, the neurons were treated with different concentrations of the compound to be tested. The final DMSO concentration after treatment is 1%. After 16 hours of incubation with camptothecin, the survival of the neurons was evaluated by counting the surviving cells. To do this, the cells were incubated for 20 minutes in the presence of a vital dye, calcein-AM (Invitrogen) at 2 μg/ml. After labelling, each culture well was analyzed by means of an imaging station (Flash Cytometer, TROPHOS, FRANCE) provided with an image analysis software package TINA 4.5 (TROPHOS, France) allowing acquisition of digital images of the whole of the well (exposure time 40 ms). The cells, defined by pixel size criteria (min=10; max=40), were then counted by means of the Tina 4.5 software package (TROPHOS)

## CC(C)CCC[C@@H](C)[C@H]1CC[C@H]2[C@@H]3CC(=NO)C4=CC(=NO)CC[C@]4(C)[C@H]3CC[C@]12C [Example 9, cholest-4-en-3,6-dioxime]
[1]; concentration 0.3 μM
  Ratio (survival of striatal neurons as compared with survival in medium supplemented with BDNF): 0.5
[2]; concentration 0.6 μM
  Ratio (survival of motoneurons with compound as compared with survival induced by neurotrophic factors): 0.25

## CC(C)CCC[C@@H](C)[C@H]1CC[C@H]2[C@@H]3CC(=O)C4=CC(=NO)CC[C@]4(C)[C@H]3CC[C@]12C [Example 3, 3-oxyimino-cholest-4-en-6-one]
[1]; concentration 1 μM
  Ratio (survival of striatal neurons as compared with survival in medium supplemented with BDNF): 0.3
[2]; concentration 3 μM
  Ratio (survival of motoneurons with compound as compared with survival induced by neurotrophic factors): 0.60
[3]; 0.1 μM compound
  Cell viability (%): 63.3 ± 20.3%
[3]; 0.3 μM compound
  Cell viability (%): 99.1 ± 15.7%
[3]; 1 μM compound
  Cell viability (%): 112.2 ± 22.3%

## CCC(C=C[C@@H](C)[C@H]1CC[C@H]2[C@@H]3CC(=NO)C4=CC(=NO)CC[C@]4(C)[C@H]3CC[C@]12C)C(C)C (stereo partly shown) [Example 13, 24-ethyl-cholest-4,22-dien-3,6-dioxime]
[2]; concentration 1 μM
  Ratio (survival of motoneurons with compound as compared with survival induced by neurotrophic factors): 0.34

## CCC(C=C[C@@H](C)[C@H]1CC[C@H]2[C@@H]3CC(=O)C4=CC(=NO)CC[C@]4(C)[C@H]3CC[C@]12C)C(C)C (stereo partly shown) [Example 7, 24-ethyl-3-oxyimino-cholest-4,22-dien-6-one]
[2]; concentration 1 μM
  Ratio (survival of motoneurons with compound as compared with survival induced by neurotrophic factors): 0.46

## CC(C)=CCC[C@@H](C)[C@H]1CC[C@H]2[C@@H]3CC(=NO)C4=CC(=NO)CC[C@]4(C)[C@H]3CC[C@]12C [Example 10, cholest-4,24-dien-3,6-dioxime]
[2]; concentration 1 μM
  Ratio (survival of motoneurons with compound as compared with survival induced by neurotrophic factors): 0.25
